{"source": "patent US12194039B2", "about": "“Methods of treating heart failure by administering omecamtiv mecarbil” (Cytokinetics, Inc., priority 2020, dated 2025)", "tested_on": "patients with heart failure and reduced ejection fraction", "format": "in vivo, human", "details": "for Change in KCCQ total symptom score at week 24, least squares mean (SE): scale 0 to 100; for All-cause death, hazard ratio (95% CI) / Cardiovascular death, hazard ratio (95% CI) / Heart failure event, hazard ratio (95% CI) / Heart failure hospitalization, hazard ratio (95% CI) / Primary composite outcome, hazard ratio (95% CI): vs placebo; for Primary composite outcome, hazard ratio (95% CI): overall trial population", "excerpt": "Patient eligibility requirements included age 18-85 years, New York Heart Association functional class (NYHA) II-IV symptoms, and ejection fraction of 35% or less. Participants were currently hospitalized for heart failure (in-patients) or had either an urgent visit to the emergency department or a hospitalization for heart failure (outpatients) within one year prior to randomization. […] Patients were required to receive standard drug and device therapy for heart failure consistent with regional clinical practice guidelines and doses optimized according to investigator judgment.\nKey exclusion criteria for patients included current hemodynamic or clinical instability requiring mechanical or intravenous medication, systolic blood pressure (SBP)<85 mmHg, estimated glomerular filtration rate (eGFR)<20 mL/min/1.73 m^2, recent acute coronary syndrome events or cardiovascular procedures (including planned), and other conditions that would adversely affect participation in the trial.\nAll eligible participants were randomized 1:1 to oral administration of either placebo or omecamtiv mecarbil (pharmacokinetic-guided dosing: 25, 37.5 or 50 mg) twice daily. Pre-dose plasma concentrations of omecamtiv mecarbil were measured at weeks 2 and 6 with respective dose adjustments on weeks 4 and 8. The patient and investigator were blinded to the plasma concentrations and dispensed dose. The full schedule of assessments is provided in the protocol available at NEJM.org. Study drug was temporarily withheld if the participant experienced clinical signs or symptoms consistent with acute myocardial infarction or ischemia.\nThe study was event-driven and was ended after approximately 1590 cardiovascular deaths. The overall type I error was 0.05 for 2-sided testing across primary and secondary endpoints with control for multiplicity testing. A single interim efficacy analysis was conducted after approximately two-thirds of the targeted number of cardiovascular deaths accrued with a one-sided alpha of 0.0005. Given the negligible impact of this interim on the final alpha, the full 0.05 was used in the final analysis consistent with the Haybittle-Peto approach. […] The mean differences in the KCCQ TSS change from baseline to Week 24 were estimated using a mixed model stratified by randomization setting (inpatient and outpatient) containing baseline TSS value, region, baseline eGFR, scheduled visit, treatment group, and the interaction of treatment group with scheduled visit. A joint omnibus F-test was used to test the treatment effect for the KCCQ TSS. An overall pooled estimate for the KCCQ TSS treatment difference to placebo were conducted using a likelihood based approach. The prespecified safety analyses included: serious adverse events; adverse events associated with discontinuation of study treatment; “adverse events of interest” i.e., ventricular arrhythmias requiring treatment and positively adjudicated major cardiac ischemic events (including myocardial infarction, hospitalization for unstable angina, coronary revascularization). […] All analyses were performed with the use of SAS software, version 9.4 (SAS Institute).\nThe cumulative incidences of the primary outcome, heart failure events, death from cardiovascular causes and death from any cause were estimated with the use of the Kaplan-Meier method. Hazard ratios and 95% confidence intervals were estimated with the use of Cox regression models stratified by randomization location and region and treatment with omecamtiv mecarbil or placebo as explanatory variables. Analyses are based upon all participants who underwent randomization.", "key": {"[1]": {"details": "N = 4120, median follow-up 21.8 months"}, "[2]": {"details": "component of primary composite, N = 4120"}}, "note": "Where two headings read alike, the source gives them in different places.", "data": [{"smiles": "COC(=O)N1CCN(Cc2cccc(NC(=O)Nc3ccc(C)nc3)c2F)CC1", "note": "[omecamtiv mecarbil]", "values": [{"measurement": "Change in KCCQ total symptom score at week 24, difference vs placebo (95% CI)", "setting": "Inpatients", "result": 2.5}, {"measurement": "Change in KCCQ total symptom score at week 24, difference vs placebo (95% CI)", "setting": "Inpatients, listed as Omecamtiv Mecarbil", "result": "2.5 (0.54, 4.46)"}, {"measurement": "Change in KCCQ total symptom score at week 24, least squares mean (SE)", "setting": "Inpatients", "result": "23.7 (0.70)"}, {"measurement": "All-cause death, % of patients", "setting": "N = 4120", "result": 25.9, "unit": "%"}, {"measurement": "All-cause death, Events/100 patient-yrs", "setting": "N = 4120", "result": 14.4, "unit": "Events/100 patient-yrs"}, {"measurement": "All-cause death, no. of patients", "setting": "N = 4120", "result": 1067, "unit": "no."}, {"measurement": "Cardiovascular death, Events/100 patient-yrs", "setting": "N = 4120", "result": 10.9, "unit": "Events/100 patient-yrs"}, {"measurement": "Heart failure event (first), % of patients", "setting": "N = 4120", "result": 28.6, "unit": "%"}, {"measurement": "Heart failure event (first), no. of patients", "setting": "N = 4120", "result": 1177, "unit": "no."}, {"measurement": "Heart failure event, Events/100 patient-yrs", "setting": "N = 4120", "result": 18.7, "unit": "Events/100 patient-yrs"}, {"measurement": "Heart failure hospitalization (first), % of patients", "setting": "N = 4120", "result": 27.7, "unit": "%"}, {"measurement": "Heart failure hospitalization (first), no. of patients", "setting": "N = 4120", "result": 1142, "unit": "no."}, {"measurement": "Heart failure hospitalization, Events/100 patient-yrs", "setting": "N = 4120", "result": 18.0, "unit": "Events/100 patient-yrs"}, {"measurement": "Primary composite outcome, Events/100 patient-yrs", "setting": "N = 4120", "result": 24.2, "unit": "Events/100 patient-yrs"}, {"measurement": "Primary composite outcome (first heart failure event or cardiovascular death), % of patients", "setting": "[1]", "result": 37.0, "unit": "%"}, {"measurement": "Primary composite outcome (first heart failure event or cardiovascular death), no. of patients", "setting": "[1]", "result": 1523, "unit": "no."}, {"measurement": "Change in KCCQ total symptom score at week 24, difference vs placebo (95% CI)", "setting": "Outpatients", "result": "−0.46"}, {"measurement": "Change in KCCQ total symptom score at week 24, difference vs placebo (95% CI)", "setting": "Outpatients, listed as Omecamtiv Mecarbil", "result": "−0.5 (−1.40, 0.48)"}, {"measurement": "Change in KCCQ total symptom score at week 24, least squares mean (SE)", "setting": "Outpatients", "result": "5.8 (0.34)"}, {"measurement": "Cardiovascular death as first event, % of patients", "setting": "[2]", "result": 8.4, "unit": "%"}, {"measurement": "Cardiovascular death as first event, no. of patients", "setting": "[2]", "result": 346, "unit": "no."}, {"measurement": "Risk reduction of primary composite outcome compared to placebo", "setting": "overall population, median 22 months", "result": 8, "unit": "%"}, {"measurement": "Cardiovascular death, % of patients", "setting": "secondary outcome, N = 4120", "result": 19.6, "unit": "%"}, {"measurement": "Cardiovascular death, no. of patients", "setting": "secondary outcome, N = 4120", "result": 808, "unit": "no."}, {"measurement": "All-cause death, hazard ratio (95% CI)", "result": 1.00}, {"measurement": "Cardiovascular death, hazard ratio (95% CI)", "result": 1.01}, {"measurement": "Heart failure event, hazard ratio (95% CI)", "result": 0.93}, {"measurement": "Heart failure hospitalization, hazard ratio (95% CI)", "result": 0.95}, {"measurement": "All-cause death, hazard ratio (95% CI)", "setting": "listed as Omecamtiv Mecarbil", "result": "1.00 (0.92, 1.09)"}, {"measurement": "Cardiovascular death, hazard ratio (95% CI)", "setting": "listed as Omecamtiv Mecarbil", "result": "1.01 (0.92, 1.11)"}, {"measurement": "Heart failure event, hazard ratio (95% CI)", "setting": "listed as Omecamtiv Mecarbil", "result": "0.93 (0.86, 1.00)"}, {"measurement": "Heart failure hospitalization, hazard ratio (95% CI)", "setting": "listed as Omecamtiv Mecarbil", "result": "0.95 (0.87, 1.03)"}, {"measurement": "Primary composite outcome, hazard ratio (95% CI)", "result": 0.92}, {"measurement": "Primary composite outcome, hazard ratio (95% CI)", "setting": "listed as Omecamtiv Mecarbil", "result": "0.92 (0.86, 0.99)"}]}]}
